Experimental data reported in EP1487791B1, “A NOVEL ANTIFUNGAL MOLECULE 2-(3,4-DIMETHYL-2,5-DIHYDRO-1H-PYRROL-2-YL)- METHYLETHYL PENTANOATE” (priority 2002, dated 2003).

How the values were obtained:
Format in all cases: cell-based
A.niger = assay: Disc diffusion assay; conditions: 48 hrs
Procedure: (§1) Pathogenic strains of fungi were obtained from the Mycology Department of Vallabhbhai Patel Chest Institute, Delhi. All the strains were grown on Sabouraud dextrose agar at 37°C. The conidia form these cultures were harvested and suspended in Sabouraud maltose broth. The number of conidia was counted using haemocytometer and their number in the suspension was adjusted to as per need of the experiment.
(§2) The disc diffusion test was performed as per described in the section of details of invention. Amphotericin B 1.25 µg/disc was used in assay as positive control standard drug. Additional discs impregnated with equivalent amount of solvent were also used in the assay as negative controls (Fig: 5). […] Table 2: Antifungal activity of compound by disc diffusion method

A. flavus = assay: Disc diffusion assay; conditions: Aspergillus flavus, 48 hrs, read-out: Diameter of zone of inhibition
Procedure: as §1, §2

A.flavus = assay: Microbroth dilution assay; parameters: key: +ve if medium appeared clear with out any growth of fungi; -ve if growth was there
Procedure: as §1
The antifungal susceptibility of the fungi to various fractions or the purified component was assayed by the microbroth, dilution method (Forthergill A.W. and McGough A.W., 1995, Clin. Microbiol. Procedure Handbook. In Vitro susceptibility Testing of Yeast, 5.15.1-5.15.15). The fungal spores were harvested from 96-h cultures and their number adjusted to 1x10^6 per ml. The Sabouraud Dextrose medium was dissolved in glass double distilled water and autoclaved at 10 psi for 15 min. 90-µl medium was added into the wells of cell culture plates. The different concentrations of the extract, fractions or the purified compound were prepared in duplicate wells and then the wells were inoculated with 10 µl of spore suspension. The plates were incubated at 37°C and examined macroscopically after 48 h for the growth of fungal mycelia. The activity was represented as -ve if growth was there and +ve if medium appeared clear with out any growth of fungi.
The antifungal susceptibility of the fungi to the purified compound was assayed by the microbroth dilution method. The different concentrations of the purified compound ranging from 21.87 to 350 µg/ml were prepared in duplicate wells by twofold dilution method. The test was done as described above. […] Table 1: Activity of the compound against Aspergillus sp. after 48 hrs.

CCCCC(=O)OC(C)CC1NCC(C)=C1C (centres unmarked) [PC-1, 2-(3,4-dimethyl-2,5-dihydro-1H-pyrrol-2-yl)-1-methylethyl pentanoate]
Diameter of zone of inhibition (A.niger; 5.0 µg/disc): 6.40 mm
zone of inhibition at 5 µg/disc (A.niger; Aspergillus niger, 5.0 µg/disc, read-out: Diameter of zone of inhibition): 6.4 mm
zone of inhibition at 10 µg/disc (A.niger; Aspergillus niger, 10.0 µg/disc, read-out: Diameter of zone of inhibition): 8.6 mm
zone of inhibition at 5 µg/disc (A. flavus; 5.0 µg/disc): 6.15 mm
zone of inhibition at 10 µg/disc (A. flavus; 10.0 µg/disc): 8.1 mm
zone of inhibition at 20 µg/disc (A. flavus; 20.0 µg/disc): 9 mm
Activity against Aspergillus sp. after 48 hrs (A.flavus; 21.87 µg/ml): -
Activity against Aspergillus sp. after 48 hrs (A.flavus; 43.75 µg/ml): -
Activity against Aspergillus sp. after 48 hrs (A.flavus; 87.50 µg/ml): +
Activity against Aspergillus sp. after 48 hrs (A.flavus; 175.00 µg/ml): +
Activity against Aspergillus sp. after 48 hrs (A.flavus; 350.00 µg/ml): +
